≈ marks a conversion by molar mass, not a printed value. Where two headings read alike, the source gives them in different places.
Columns and labels:
C. difficile ATCC 43255 = assay: Determination of minimal-inhibitory concentrations (microdilution), C. difficile ATCC 43255; assay type: cell-based, Clostridioides difficile; settings: for MIC: Clostridioides difficile
S. aureus = assay: MIC against S. aureus strains; assay type: cell-based; settings: S. aureus ATCC 29213, 24 h; for MIC: Staphylococcus aureus, ATCC29213, 24 h, read-out: MIC (μg/mL) 24 h
[1] = C. difficile ATCC 43255, 48-h incubation
[2] = ATCC43255, 24 h, C. difficile ATCC 43255, 24 h, read-out: MIC (μg/mL) 24 h
[3] = ATCC43255, 48 h, C. difficile ATCC 43255, 48-h incubation, read-out: MIC (μg/mL) 48 h

Row | Structure (SMILES) | MIC (μg/mL) 48 h (C. difficile ATCC 43255; [1]) [µg/mL] | MIC (C. difficile ATCC 43255; [2]) [µg/mL] | MIC (S. aureus) [µg/mL] | MIC (C. difficile ATCC 43255; [3]) [µg/mL] | MIC (μg/mL) 24 h (C. difficile ATCC 43255; C. difficile ATCC 43255, 24 h) [µg/mL] | MIC (μg/mL) 24 h (S. aureus) [µg/mL]
1 | Oc1ccc(-c2cc(-c3ccc(Oc4ccccc4)cc3)no2)cc1 [Compound 135, 4-(3-(4-Phenoxyphenyl)isoxazol-5-yl)phenol] | >128 | > 128 | > 128 |  |  | 
2 | NCc1ccc(-c2nc(-c3ccc(OC4CCCC4)cc3)no2)cc1 [Compound 53, (4-(3-(4-(Cyclopentyloxy)phenyl)-1,2,4-oxadiazol-5-yl)phenyl) methanamine] |  | 4 (≈ 11.9 µM) | 2 (≈ 5.96 µM) | 8 (≈ 23.9 µM) |  | 
3 | FC(F)(F)c1ccc(Oc2ccc(-c3noc(-c4n[nH]cc4Br)n3)cc2)cc1 [Compound 27] | >128 |  |  |  | >128 | 1 (≈ 2.22 µM)
4 | CCOc1ccc(-c2noc(-c3ccc(O)cc3)n2)cc1 [Compound 86, 4-(3-(4-Ethoxyphenyl)-1,2,4-oxadiazol-5-yl)phenol] |  | > 128 | > 128 | > 128 |  | 
5 | FC(F)(F)c1ccc(Oc2ccc(-c3noc(-c4n[nH]cc4NC4CCCCC4)n3)cc2)cc1 [Compound 39] | >128 |  |  |  | >128 | >128
6 | Oc1ccc(-c2nc(-c3ccc(OC4CC4)cc3)no2)cc1 [Compound 92, 4-(3-(4-Cyclopropoxyphenyl)-1,2,4-oxadiazol-5-yl)phenol] |  | > 128 | > 128 | > 128 |  | 
7 | O=[N+]([O-])c1ccc(-c2nc(-c3ccc(Oc4ccc(C(F)(F)F)cc4)cc3)no2)cc1 [Compound 19] | >128 |  |  |  | >128 | ≥128
8 | O=C1C[C@H](c2nc(-c3ccc(Oc4ccc(C(F)(F)F)cc4)cc3)no2)CN1 [Compound 31] | >128 |  |  |  | >128 | >128
9 | FC(F)(F)c1ccc(Oc2ccc(-c3noc(-c4ccc(Br)cc4)n3)cc2)cc1 [Compound 18] | >128 |  |  |  | >128 | >128
